Two molecules from patent publication US20230357179A1, “RAF KINASE INHIBITORS AND METHODS OF USE THEREOF” (Deciphera Pharmaceuticals, LLC, priority 2021, published 2023) can be followed below.

In the test the test system is WM3928 cells. As to the kind of experiment: WM3928 cell proliferation assay (2), resazurin, 384-well. The format is cell-based. Conditions: inhibition of cell proliferation, 67-72 hours. The protocol: WM3928 Cell Proliferation Assay (2)
WM3928 cells (#WM3928-01-0001) are obtained from Rockland Immunochemicals Inc (Gilbertsville, PA). Briefly, cells were grown in MCDB 153 medium (Sigma, #M7403, St. Louis, MO) supplemented with 20% Leibovitz's L-15 (ThermoFisher #11415-064, Waltham, MA), 2% heat inactivated fetal bovine serum (ThermoFisher, #A3840001, Waltham, MA), 5 μg/mL Insulin (Bovine Pancreas) (Sigma, #I0516, St. Louis, MO), 1.68 mM Calcium Chloride (Sigma, #C-34006, St. Louis, MO) and 1% Penicillin/Streptomycin/L-Glutamine (ThermoFisher #10378016, Waltham, MA) at 37° C., 5% CO2, and 95% humidity. Cells are expanded until reaching 70-95% confluency at which point they are sub-cultured or harvested for assay use. Using the Beckman Coulter Echo 650, a serial dilution of test compound is dispensed into a 384-well black clear bottom plate in triplicate. Seven hundred fifty cells are added per well in 50 μL complete growth medium in the 384-well plate. Plates are incubated for 67-72 hours at 37° C., 5% CO2, and 95% humidity. At the end of the incubation, 10 μL of a 440 μM solution of resazurin (Sigma, #199303, St. Louis, MO) in PBS is added to each well of the plate and plates are incubated for an additional 3-6 hours at 37° C., 5% CO2, and 95% humidity. Plates are read on a Synergy2 or equivalent reader (Biotek, Winooski VT) using an excitation of 540 nm and an emission of 600 nm. Data is analyzed using Prism software (GraphPad, San Diego, CA) to calculate IC50 values.

`Cc1ccc(NC(=O)N2CC[C@H](C(F)(F)F)C2)cc1-c1cncc(-c2cc(NC(=O)C3CC3)ncn2)c1` [Example 195]: the 50% inhibitory concentration (IC50) is no more than 0.1 µM.
The figure for `Cc1cc(F)c(NC(=O)N2CC[C@H](C(F)(F)F)C2)cc1-c1cncc(-c2cc(NC(=O)C3CC3)ncn2)c1` [Example 216] is no more than 0.1 µM.

By IC50 is commonly meant the concentration needed to halve the response being measured.
